From patent US9770503B2, “Immunomodulating compositions and uses therefor” (CANCURE LIMITED ACN 164 438 359, priority 2003, dated 2017)

Tested on: splenic lymphocytes cultured with C57bl6J derived B16F10 melanoma cells
Assay: Mixed lymphocyte culture (MLC) screening assay, melanoma cells as stimulators
Type: cell-based, mice
Conditions: 3 days of growth; FIG. 4
Text: The inventor has established a rapid screening assay for analysing the immune-enhancing activities of various lectin-interactive agents. The assay is based on the ability to grow lymphocytes derived from the spleens of vaccinated mice in mixed lymphocyte culture (MLC) in the presence or absence of the agents. The theory behind this approach is that tumour cells secrete galectins which then kill the T lymphocytes.
Tumour cells, either NeuD12 FVB/N 202 breast cancer cells or C57bl6J derived B16F10 melanoma cells were used as stimulators and target cells for the assays. The tumour cells used as stimulators in the MLC were prepared as outlined in WO 01/88097 to express high levels of B7 antigen and were treated with interferon γ (1000 IU/mL) for 24 h before addition of interferon β (1000 IU/mL) for a further 24-48 h. The tumour cells were grown in 35 mm diameter×6 well cell culture dishes at about 1.5×10^6 cells per well. The tumour cells, after IFN treatment, were incubated with the growth arresting drug, mitomycin C for 20-25 min in situ in the 6-well culture dishes before it was removed by washing with PBS or fresh media three times and resuspension in 4 mL of fresh complete RPMI media/10% FCS.
Lymphocytes were extracted from the spleen of vaccinated mice and passed through a 100-200 μm stainless steel mesh sieve into 5-10 mL complete RPMI media. The red blood cells were removed by centrifugation on lymphoprep and the white blood cell layer at the interface between the culture media phase and ficoll/Hypaque phase was harvested and the ficoll/Hypaque removed by washing. […] After 2-3 days, or as required (assessed by the colour of the media pH indicator change), half the media was carefully aspirated away from each well and replaced with fresh complete media with or without added lectin-interacting agent (e.g., a carbohydrate as disclosed for instance herein generally at about 0.1 mM to about 10 mM final concentration, typically at about 1 mM). […]

| SMILES | proliferation of lymphocytes in a melanoma-specific MLC |
| --- | --- |
| OC[C@H]1O[C@@H](O[C@H]2[C@H](O)[C@@H](O)[C@H](OCc3ccccc3)O[C@@H]2CO)[C@H](O)[C@@H](O)[C@H]1O [benzyl 4-O-β-D-galactopyranosyl-β-D-glucopyranoside] | promoting the proliferation of lymphocytes |
| OC[C@@H](O)[C@@H](O[C@@H]1O[C@H](CO)[C@H](O)[C@H](O)[C@H]1O)[C@H](O)[C@@H](O)CO [D-lactitol monohydrate] | promoting the proliferation of lymphocytes |
| OC[C@H]1O[C@@H](O[C@@H]2[C@@H](CO)OC(O)(CO)[C@H]2O)[C@H](O)[C@@H](O)[C@H]1O (mixture of isomers) [lactulose] | promoting the proliferation of lymphocytes |
